Assay results reported in US12533353B2, “Methods of treatment of cancer comprising CDC7 inhibitors” (CARNA BIOSCIENCES, INC., priority 2018, dated 2026).
Values joined by “and” are separate entries in the source; they are usually repeats but may differ in a detail not shown here. Equal values may be shown once. Read-outs that look alike come from different tables or passages of the source.

Legend:
[1] = tested on: panel of 235 cancer cell lines; experiment: CellTiter-Glo luminescent cell viability assay, 72-hour incubation; type: cell-based
Protocol: The concentration-dependent effect of SRA141 on cell viability was determined in a panel of 235 cancer cell lines, utilizing the CellTiter-Glo™ luminescence assay (Promega) with a 72-hour drug incubation period. The 50% inhibition concentration (IC50) was determined in the cancer cell lines using Cell Titer-Glo® luminescent cell viability assay after incubation with SRA141 at different concentrations.

[2] = tested on: Colo-205, SW620, SNU-398, NCI-H716, MDA-MB-231, NCI-H1573 and SW1116; experiment: Four orthogonal antiproliferative assays (CTG, CTB, CyQuant, Calcein AM); type: cell-based; details: 144 h compared with 72 h, all assays and cell lines
Excerpt: The antiproliferative activity of SRA141 was further characterized in seven cell lines (Colo-205, SW620, SNU-398, NCI-H716, MDA-MB-231, NCI-H1573 and SW1116) using four orthogonal assays designed to measure ATP levels (CTG); metabolic activity (CellTiter-Blue (CTB)); DNA content of the cells (CyQuant); and esterase activity (Calcein AM). The relative sensitivities of cell lines within each assay format were generally concordant.

Cdc7 = Cdc7 (Homo sapiens, UniProt O00311); experiment: In vitro biochemical kinase assay
Sequence of Cdc7 (O00311 whole entry): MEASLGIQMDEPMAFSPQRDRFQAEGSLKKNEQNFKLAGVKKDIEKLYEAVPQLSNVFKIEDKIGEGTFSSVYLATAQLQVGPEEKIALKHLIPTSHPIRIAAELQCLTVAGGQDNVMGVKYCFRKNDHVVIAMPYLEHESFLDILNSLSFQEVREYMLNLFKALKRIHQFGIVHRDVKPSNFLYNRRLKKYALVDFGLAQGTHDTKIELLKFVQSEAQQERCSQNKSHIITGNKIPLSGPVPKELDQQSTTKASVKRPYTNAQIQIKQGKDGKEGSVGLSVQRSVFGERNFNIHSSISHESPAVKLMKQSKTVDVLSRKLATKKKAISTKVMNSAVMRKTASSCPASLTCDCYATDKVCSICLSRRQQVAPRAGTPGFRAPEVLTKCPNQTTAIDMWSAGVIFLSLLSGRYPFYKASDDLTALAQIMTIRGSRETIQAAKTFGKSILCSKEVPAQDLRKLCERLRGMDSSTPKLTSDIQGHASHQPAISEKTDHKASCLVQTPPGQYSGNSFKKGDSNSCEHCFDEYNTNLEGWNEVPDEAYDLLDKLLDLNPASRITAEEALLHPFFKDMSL
Sequence of Cdc7 (Q9UBU7 whole entry partner): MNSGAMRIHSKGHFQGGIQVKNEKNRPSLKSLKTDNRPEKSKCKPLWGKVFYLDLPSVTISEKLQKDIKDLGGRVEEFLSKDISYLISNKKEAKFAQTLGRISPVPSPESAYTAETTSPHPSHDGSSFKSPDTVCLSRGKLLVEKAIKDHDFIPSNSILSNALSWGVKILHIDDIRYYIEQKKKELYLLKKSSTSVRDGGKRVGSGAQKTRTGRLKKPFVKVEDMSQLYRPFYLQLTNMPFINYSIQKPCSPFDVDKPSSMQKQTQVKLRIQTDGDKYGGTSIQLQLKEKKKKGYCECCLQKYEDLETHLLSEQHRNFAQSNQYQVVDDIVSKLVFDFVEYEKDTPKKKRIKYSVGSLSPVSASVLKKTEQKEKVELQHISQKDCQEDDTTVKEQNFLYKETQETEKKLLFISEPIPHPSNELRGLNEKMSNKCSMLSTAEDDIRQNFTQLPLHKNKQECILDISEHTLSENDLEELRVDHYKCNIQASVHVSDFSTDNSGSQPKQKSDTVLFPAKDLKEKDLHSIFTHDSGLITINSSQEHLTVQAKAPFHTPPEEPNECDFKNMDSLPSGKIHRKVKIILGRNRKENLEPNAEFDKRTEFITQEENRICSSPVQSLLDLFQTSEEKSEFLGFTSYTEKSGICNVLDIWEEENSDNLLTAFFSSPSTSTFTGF
Protocol: Inhibition of Cdc7 by SRA141 was measured using in vitro kinase assays.

[3] = tested on: MCM2, Ser40/41 and Ser53 (Colo-205 cells); experiment: Phosphorylation status of Cdc7 target MCM2 in cells; type: cell-based, human; details: Colo-205, 8 to 24 hours
Protocol: Colo-205 cells were treated with SRA141 (at concentrations between 0.033 and 3.3 μM) for 8 to 24 hours with subsequent assessment of the phosphorylation status of the downstream targets for Cdc7 (MCM2, Ser40/41 and Ser53), and the putative off-target kinases CDK8 (STAT1, Ser727); CDK7 and 9 (RNA pol II, Ser2); LATS2 (YAP1, Ser127) as well as the levels of MCL-1, known to be indirectly controlled by CDK9 (Gregory, 2015).

AM5512 = experiment: AML PDX ex vivo 3D culture, 5 days; type: cell-based
Protocol: (§1) The activity of SRA141 was investigated in in vitro and ex vivo three-dimensional (3D) cultures prepared from three AML cell lines (EOL-1, Molm-16 and MV-4-11) and three AML PDX models (AM5512, AM7440 and AM7577), respectively. Tumor cultures were treated with SRA141 (0.08 to 33 μM) for 5 days.

AM7440 = experiment: AML PDX ex vivo 3D culture, 5 days; type: cell-based
Protocol: as §1

AM7577 = experiment: AML PDX ex vivo 3D culture, 5 days; type: cell-based
Protocol: as §1

[4] = tested on: Phosphorylation of MCM2 at Ser53 (Colo-205 cells); experiment: Durability of Cdc7 inhibition after washout (pMCM2 Ser53); type: cell-based, human; details: 24 hours after washout
Protocol: The durability of drug-induced Cdc7 inhibition was investigated in Colo-205 cells treated with two concentrations of SRA141 (0.1 μM and 1 μM) for 48 hours, followed by either immediate cell harvest, or removal of the drug incubate followed by an additional 24 hours incubation prior to cell harvest. Phosphorylation of MCM2 at Ser53, a target site of Cdc7 activity, was compared between the two conditions.

[5] = tested on: Colo-205 and SW620 cell populations; experiment: High content imaging of cells in mitosis, 48 hours; type: cell-based
A20 tumor xenografts = experiment: A20 immunocompetent lymphoma xenograft model; type: in vivo; details: 120 mg/kg orally
Protocol: Immunocompetent female BALB/c mice bearing A20 tumor xenografts were administered (i) control (PBS, intraperitoneal) or (ii) SRA141 120 mg/kg orally; n=8 animals per group). Dosing occurred on Days 0 to 4, 7 to 11, and 14 to 18. Tumor growth inhibition was calculated on Day 23, the final day of the study.

[6] = tested on: MDA-MB-486 breast tumor xenografts; experiment: MDA-MB-486 breast xenograft study; type: in vivo; details: for tumor growth inhibition: 5 weeks, Day 35
Protocol: Female CB-17 SCID mice bearing MDA-MB-486 breast tumor xenografts were orally administered (i) vehicle control (0.1 M HCl/0.5% MC400) or (ii) SRA141 30 or 60 mg/kg BID for 5 weeks (n=10 per treatment group). Tumor growth inhibition was calculated on Day 35, the final day of the study.

[7] = tested on: tumoral phospho-MCM2 (pMCM2); experiment: Mouse SW620 colorectal xenograft PK/PD assessment; type: in vivo
Protocol: The effect of SRA141 treatment on tumoral phospho-MCM2 (pMCM2), a direct substrate of Cdc7 and downstream marker of Cdc7 inhibition, was determined in mice bearing SW620 xenografts. Changes in pMCM2 were correlated with SRA141 concentrations in tumor and plasma over a 48-hour period following drug administration to construct a rudimentary PK/PD model.
Specifically, female BALB/c mice bearing subcutaneous SW620 tumors were administered single oral doses of SRA141 at 30, 60 or 120 mg/kg (n=15 per group). Control animals were administered vehicle (0.1 M HCl/0.5% MC400; n=10). At 2, 4, 8, 24 and 48 hours following treatment, three animals from each group (n=2 for control) were terminated, and plasma and tumor sampled for analysis.

[8] = In vitro metabolism in hepatocytes; type: in vitro ADME, human
Excerpt: Eleven metabolites were identified across species, of which 6 occurred in the human matrix. One human-specific metabolite was identified, but only at trace levels. The mouse, rat and dog hepatocyte metabolite profiles contained all the other human metabolites.

[9] = Absolute oral bioavailability; details: dog, in vivo, read-out: absolute oral bioavailability (% F)

CCOC(=O)C1=C(NN2CCN(CC(F)(F)F)CC2)O/C(=C\c2c[nH]c3ncccc23)C1=O [SRA141]
activity in hematologic-derived cell lines ([1]; 59 hematologic cancer cell lines): Significant activity | IC50 ([1]; solid tumor cell lines of bladder, sarcoma, colon and cecum, renal, head-and-neck, melanoma, gastric lineages): < 3 µM | potency versus treatment duration [2]: consistent increase of SRA141 potency was observed with a longer treatment duration of 144 h | IC50 (Cdc7; no pre-incubation): 0.004 µM | IC50 (Cdc7; pre-incubation with Cdc7 enzyme for 1 hour): 0.0014 µM | concentration from which MCM2 phosphorylation at Ser40/41 and Ser53 was reduced [3]: 0.033 µM | IC50 (AM5512): 3.2 µM and 3.16 µM | IC50 (AM7440): 1.61 µM | IC50 (AM7577): 0.15 µM | Cdc7 activity (pMCM2 Ser53) after washout ([4]; 0.1 μM for 48 hours): recovery of Cdc7 activity by 24 hours following compound washout | Cdc7 activity (pMCM2 Ser53) after washout ([4]; 1 μM for 48 hours): prolonged pMCM2 inhibition was observed at 24 hours following washout | percent of cells in mitosis [5]: percent of cells in mitosis is greater in populations treated with SRA141 compared to other Cdc7 inhibitors | tolerability (A20 tumor xenografts): tolerated | tumor growth inhibition (A20 tumor xenografts; Days 0 to 4, 7 to 11, 14 to 18, Day 23): 59% | tolerability ([6]; 30 mg/kg BID): well tolerated | tumor growth inhibition ([6]; 30 mg/kg BID): 26% | mice with maximum body weight loss greater than 20% ([6]; 60 mg/kg BID): Six of 10 | tumor growth inhibition ([6]; 60 mg/kg BID): 53% | time of peak pMCM2 decrease ([7]; 30 mg/kg and 60 mg/kg single doses): 2-4 hours | Maximal SRA141 plasma concentration ([7]; 30 mg/kg single oral dose): ~1 µg/mL | Maximal SRA141 plasma concentration ([7]; 60 mg/kg single oral dose): ~1.5 µg/mL | time of peak pMCM2 decrease ([7]; 120 mg/kg single dose): 2-8 hours | time of maximal plasma concentration after administration ([7]; 30, 60 and 120 mg/kg): 2 to 4 h | tumoral concentrations relative to plasma ([7]; 30, 60 and 120 mg/kg): similar | circulating plasma and intra-tumoral tissue concentration required to inhibit pMCM2 by 50% ([7]; correlation of PK and PD data): approximately 1.1 μM | metabolic stability ([8]; human hepatocytes): favorable metabolic stability | number of metabolites in the human matrix ([8]; of eleven across species): 6 | bioavailability ([9]; free base suspension, fasted, range given for mouse, rat and dog together): 31 to 54% | bioavailability ([9]; two proposed clinical drug product capsule presentations): 41 to 62%
